Reference: article PMC4457358, “Structure–activity studies in the development of a hydrazone based inhibitor of adipose-triglyceride lipase (ATGL)” (Bioorganic & Medicinal Chemistry, 2015)
Entries after “also recorded” stand apart in the source; their conditions may differ. Where two headings read alike, the source gives them in different places.

Assays:
[1] = target: T1, murine ATGL (Mus musculus, UniProt Q8BJ56); assay: Triglyceride hydrolase activity assay with COS7-cell lysate overexpressing recombinant murine ATGL, radiolabelled triolein substrate; assay type: biochemical; conditions: for inhibition at 200 µM: 1 h, read-out: I200 (%); for IC50 / biological activity against ATGL (in words): COS7-cell lysate overexpressing murine ATGL;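 for all read-outs here: radioactivity from the triolein substrate quantified by liquid scintillation counting after phase separation, reflecting triglyceride hydrolase activity of murine ATGL in lysates of transfected COS-7 cells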
T1 construct: expressed in transfected cells; host or cells: COS-7 (ATCC CRL-1651), transient transfection with Metafectene; crude lysate after 1000 x g spin
T1 sequence (Q8BJ56 1-486): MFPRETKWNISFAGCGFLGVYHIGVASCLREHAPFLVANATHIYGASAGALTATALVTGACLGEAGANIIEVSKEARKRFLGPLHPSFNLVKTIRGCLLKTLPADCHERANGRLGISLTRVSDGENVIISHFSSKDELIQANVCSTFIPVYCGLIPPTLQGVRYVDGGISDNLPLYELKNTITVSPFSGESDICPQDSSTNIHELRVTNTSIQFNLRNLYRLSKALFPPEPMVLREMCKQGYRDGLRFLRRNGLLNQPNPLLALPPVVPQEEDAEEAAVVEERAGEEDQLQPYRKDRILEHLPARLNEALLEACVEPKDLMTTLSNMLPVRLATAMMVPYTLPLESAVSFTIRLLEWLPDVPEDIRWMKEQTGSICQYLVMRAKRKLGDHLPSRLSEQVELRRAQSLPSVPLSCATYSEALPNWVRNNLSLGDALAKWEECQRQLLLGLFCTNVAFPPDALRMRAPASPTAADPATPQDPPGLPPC
Procedure: All synthesized test compounds were screened for their efficiency to inhibit ATGL activity in vitro in an assay using radiolabelled triolein as substrate.[20] As ATGL cannot be purified, the assays were performed with COS7-cell lysates from cells overexpressing recombinant murine ATGL. For the determination of the IC50-value inhibitors were administered with increasing concentrations to the enzyme and its substrate. To determine the ATGL-inhibition efficiency at 200 μM (I200), 200 μM inhibitor was administered to the enzyme and its substrate.
For the determination of TG hydrolase activity cell lysates of COS-7 cells overexpressing recombinant murine ATGL were used. Therefore, monkey embryonic kidney cells (Cos-7; ATCC CRL-1651) were cultivated in Dulbeccos modified eagles medium (DMEM, GIBCO, Invitrogen Corp., Carlsbad, CA), containing 10% fetal calf serum (FCS, Sigma–Aldrich) and antibiotics (100 IU/mL penicillin and 100 μg/mL streptomycin) at standard conditions (37 °C, 5% CO2, 95% humidified atmosphere). Cells were transfected with 1 μg DNA complexed to Metafectene (Biontex GmbH, Munich, Germany) in serum free DMEM. After 4 h the medium was replaced by DMEM supplemented with 10% FCS. For the preparation of cell lysates, cells were washed with 1× phosphate buffered saline, collected using a cell scraper, and disrupted in buffer A (0.25 M sucrose, 1 mM EDTA, 1 mM dithiothreitol, 20 μg/mL leupeptine, 2 μg/mL antipain, 1 μg/mL pepstatin, pH 7.0) by sonication (Virsonic 475, Virtis, Gardiner, NJ). Nuclei and unbroken cells were removed by centrifugation (1000×g, 4 °C, for 10 min). Protein concentration of the cell lysates were determined by Bio-Rad protein assay according to the manufacturer’s protocol (Bio-Rad 785, Bio-Rad Laboratories, Munich, Germany), using BSA as standard.
The triolein (TO) substrate was prepared as described. […] In brief, 330 μM triolein (40,000 cpm/nmol) (GE Healthcare) was emulsified with 45 μM phosphatidylcholine/phosphatidylinositol (3:1) (Sigma) in 100 mM potassium phosphate buffer (pH 7.0) by sonication (Virsonic 475, Virtis) and was adjusted to 5% (w/v) fatty acid free bovine serum albumin (BSA, Sigma). 100 μL (20 μg protein) cell lysate or 2 μl purified recombinant LPL (Sigma–Aldrich) were incubated with 100 μL TO substrate in the presence or in the absence of inhibitors in a water bath for 1 h at 37 °C. After incubation, the reaction was terminated by adding 3.25 mL of methanol/chloroform/heptane (10:9:7) and 1 mL of 0.1 M potassium carbonate, 0.1 M boric acid (pH 10.5). After centrifugation (800 g, 15 min), the radioactivity in 1 mL of the upper phase was determined by liquid scintillation counting.

[2] = tested on: WAT (white adipose tissue) organ cultures; assay: Lipolysis of isolated WAT organ cultures of wild-type, ATGL-ko and HSL-ko mice (FA release); assay type: cell-based; conditions: for FA release (lipolysis): 0, 10, 100, 200 µM inhibitor, fat pads of wt, ATGL-ko, HSL-ko mice; for selectivity between ATGL and HSL: lipolysis similarly decreased in ATGL and HSL deficient adipose tissue
From the text: As the hydrazone moiety is regarded as a problematic molecular group due to its metabolic instability resulting in toxic side products,[12] we prepared compound 8 which can be regarded as a variant of 1a missing one nitrogen atom (Scheme 5). […] Taken together these efforts have shown that the hydrazone moiety is an essential element of the biological activity of the hit compound 1a and could not be replaced by the most obvious structural isosteres. In order to further characterize our hit compound 1a and best inhibitor 1h, these compounds were tested for ATGL- and HSL-selectivity by the determination of lipolysis in WAT (white adipose tissue) organ cultures of wild-type, ATGL-ko, and HSL-ko mice. […]
µM Inhibitor µM Inhibitor […]
(§1) (also on this page, place not known: µmol glycerol/h*mg protein nmol FFA/ml/min nmol FFA/h*mg nmol FFA/h*mg) […]
(§2) Lipolysis of isolated WAT organ cultures - Gonadal fat pads of wild-type, ATGL deficient (ATGL-ko), and HSL deficient (HSL-ko) mice were surgically removed and washed several times with PBS.
(§3) Tissue pieces (~15 mg) were preincubated in DMEM containing 0, 10, 100, and 200 µM inhibitors for 8 h at C37°C, 5% CO2, 95 % humidified atmosphere. Thereafter, the medium was replaced by DMEM containing 2 % BSA (fatty acid-free) and 0, 10, 100, and 200 µM inhibitors, and incubated for another 60 min at 37°C. Then, aliquots of the medium were removed and analyzed for FA and glycerol content using commercial kits (HR Series NEFA-HR(2), WAKO Diagnostics, Neuss, Germany; Sigma, St.
Louis, MO). For protein determinations, fat pads were washed extensively with PBS and lysed in 0.3 […]
U. et al. Monoglyceride lipase deficiency in mice impairs lipolysis and attenuates diet-induced insulin

[3] = target: T2, monoglyceride lipase (MGL) (Mus musculus, UniProt O35678); assay: MG hydrolase activity with recombinant purified mMGL; assay type: biochemical; conditions: 100 µM compound
T2 sequence (O35678 1-303): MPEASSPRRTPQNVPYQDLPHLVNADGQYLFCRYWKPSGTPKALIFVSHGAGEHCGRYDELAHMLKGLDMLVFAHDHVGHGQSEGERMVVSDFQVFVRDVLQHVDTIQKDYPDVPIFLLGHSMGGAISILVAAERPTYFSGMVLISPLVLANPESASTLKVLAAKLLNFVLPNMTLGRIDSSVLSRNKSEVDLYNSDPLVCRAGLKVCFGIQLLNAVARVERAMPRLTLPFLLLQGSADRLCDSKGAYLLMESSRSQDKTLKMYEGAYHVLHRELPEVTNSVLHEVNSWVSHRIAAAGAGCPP
Procedure: (§4) Structure-activity studies in the development of a hydrazone based inhibitor of adipose-triglyceride lipase (ATGL)
(§5) Nicole Mayer, Martina Schweiger, Michaela-Christina Melcher, Christian Fledelius, Rudolf Zechner, Robert Zimmermann and Rolf Breinbauer […]
(§6) µM Inhibitor µM Inhibitor
(§7) Fig. S1: Selectivity tests of 1a and 1h with white adipose tissue fat pads of wt, ATGL-ko, and […]
Fig S2. LPL (left) and Monoglyceride hydrolase (MGH) (right) activities in the absence or presence of 100 µM compound 1h.
as §1, §2
Tissue pieces (~15 mg) were preincubated in DMEM containing 0, 10, 100, and 200 µM inhibitors for 8 h at C37°C, 5% CO2, 95 % humidified atmosphere. […] Then, aliquots of the medium were removed and analyzed for FA and glycerol content using commercial kits (HR Series NEFA-HR(2), WAKO Diagnostics, Neuss, Germany; Sigma, St. […]
viability assays, cells were seeded at an initial density of […] cells per well in 12-well plates and cultured under standard conditions for 24 hours. […] After solubilization for 10 min at room temperature absorbance was measured at 540 nm. […]

[4] = tested on: lipoprotein lipase; assay: LPL activity with purified recombinant LPL and triolein substrate; assay type: biochemical; conditions: 100 µM compound
Procedure: The triolein (TO) substrate was prepared as described. In brief, 330 μM triolein (40,000 cpm/nmol) (GE Healthcare) was emulsified with 45 μM phosphatidylcholine/phosphatidylinositol (3:1) (Sigma) in 100 mM potassium phosphate buffer (pH 7.0) by sonication (Virsonic 475, Virtis) and was adjusted to 5% (w/v) fatty acid free bovine serum albumin (BSA, Sigma). 100 μL (20 μg protein) cell lysate or 2 μl purified recombinant LPL (Sigma–Aldrich) were incubated with 100 μL TO substrate in the presence or in the absence of inhibitors in a water bath for 1 h at 37 °C. After incubation, the reaction was terminated by adding 3.25 mL of methanol/chloroform/heptane (10:9:7) and 1 mL of 0.1 M potassium carbonate, 0.1 M boric acid (pH 10.5). After centrifugation (800 g, 15 min), the radioactivity in 1 mL of the upper phase was determined by liquid scintillation counting.
as §4, §5, §6, §7
Fig S2. LPL (left) and Monoglyceride hydrolase (MGH) (right) activities in the absence or presence of 100 µM compound 1h. […]

[5] = tested on: AML-12 mouse hepatocytes cells; assay: Tox 4 toxicity test (neutral red viability); assay type: cell-based; conditions: 1, 10, 100, 200 µM inhibitor
Procedure: Fig. S3: Toxicity test of inhibitor 1h using Tox 4-test with AML-12 mouse hepatocytes cells […]
as §2, §3
Louis, MO). […]
viability assays, cells were seeded at an initial density of […] cells per well in 12-well plates and cultured under standard conditions for 24 hours. […] After solubilization for 10 min at room temperature absorbance was measured at 540 nm.
Determination of MG hydrolase activity. Monoacylglycerol hydrolase activities were determined using recombinant, purified mMGL and rac-1-(3)-oleoylglycerol as substrate as described (Taschler, U. et al. Monoglyceride lipase deficiency in mice impairs lipolysis and attenuates diet-induced insulin

[6] = ATGL-inhibition efficiency at 200 μM inhibitor

Row | SMILES | inhibition at 200 µM [1, 6] | IC50 [1] | melting point | further results
1 | Oc1ccc(/C=N/N2CCN(c3ccccc3)CC2)cc1O [Compound 1a, (E)-4-((4-Phenylpiperazin-1-ylimino)methyl)benzene-1,2-diol] | 69% | 110 µM | 180 °C | FA release (lipolysis) [2]: dose dependent reduction of FA release; selectivity between ATGL and HSL [2]: no selectivity
2 | Oc1ccc(/C=N/N2CCN(c3ccccc3)CC2)c(O)c1 [Compound 1h, (E)-4-(4-Phenylpiperazin-1-ylimino)methylbenzene-1,3-diol] | 94% | 10 µM | 183 to 184 °C | inhibition of monoglyceride lipase (MGL) [3]: does not inhibit; inhibition of lipoprotein lipase [4]: does not inhibit; toxicity (Tox 4 toxicity test) [5]: toxic; also recorded: intrinsic toxicity; FA release (lipolysis) [2]: dose dependent reduction of FA release; selectivity between ATGL and HSL [2]: no selectivity; also recorded: limited specificity
3 | Oc1ccc(/C=N/N2CCN(Cc3ccccc3)CC2)c(O)c1 [Compound 3d, (E)-4-((4-Benzylpiperazin-1-ylimino)methyl)benzene-1,3-diol] | 48% |  | 225 to 228 °C | 
4 | Oc1ccc(/C=N/N2CCN(CCc3ccccc3)CC2)c(O)c1 [Compound 3e, (E)-4-((4-Phenethylpiperazin-1-ylimino)methyl)benzene-1,3-diol] | 14% |  | 211 to 214 °C | 
5 | Oc1ccc(/C=N/N2CCN(C3CCCCC3)CC2)c(O)c1 [Compound 3f, (E)-4-((4-Cyclohexylpiperazin-1-ylimino)methyl)benzene-1,3-diol] | 25% |  | 247 to 249 °C (dec.) | 
6 | Oc1ccc(/C=N/N2CCN(C3CCCC3)CC2)c(O)c1 [Compound 3g, (E)-4-((4-Cyclopentylpiperazin-1-ylimino)methyl)benzene-1,3-diol] | 36% |  | 237 to 239 °C (dec.) | 
7 | Oc1ccc(/C=N/N2CCC(c3ccccc3)CC2)c(O)c1 [Compound 3h, (E)-4-((4-Phenylpiperidine-1-ylimino)methyl)benzene-1,3-diol] | 81% | 40 µM | 139 to 142 °C | 
8 | Oc1ccc(/C=N/N2CCC(Cc3ccccc3)CC2)c(O)c1 [Compound 3i, (E)-4-((4-benzylpiperidine-1-ylimino)methyl)benzene-1,3-diol] | 26% |  | 138 to 141 °C | 
9 | Oc1ccc(CN2CCN(c3ccccc3)CC2)cc1O [Compound 8, 4-((4-Phenylpiperazin-1-yl)methyl)benzene-1,2-diol] |  |  | 100 to 102 °C | inhibition at 200 µM [1]: 20%; biological activity against ATGL (in words) [1]: biologically inactive
10 | COc1ccc(NC(=O)N2CCN(c3ccccc3)CC2)cc1OC [Compound 12, N-(3,4-Dimethoxyphenyl)-4-phenylpiperazin-1-carboxamide] | 40% |  | 122 to 125 °C | biological activity against ATGL (in words) [1]: no biological activity
11 | O=C(Oc1ccc(F)c(F)c1)N1CCN(c2ccccc2)CC1 [Compound 14, 3,4-Difluorophenyl-4-phenylpiperazin-1-carboxylate] | 57% | 110 µM | 94 to 96 °C | 
